Data taken from patent US20180208563A1, “THERMOD[…] CRYSTAL MODIFICATION OF 2-CHLORO-3-(METHYLSULFANYL)-N-(1-METHYL-1H-TETRAZOL-5-YL)-4-(TRIFLUOROMETHYL)BENZAMIDE” (BAYER CROPSCIENCE AKTIENGESELLSCHAFT, priority 2015, published 2018).

Assays:
[1] = Testing in practice of suspension formulations (crystal growth); type: physicochemical; conditions: suspension formulations with finely ground solid benzamide; spontaneously or over a longer period
Source text: The benzamide known for example from WO 2012/028579 A1 (example No. 4-638 in table 4 therein) has herbicidal properties and is suitable for the production of crop protection compositions which can be employed for weed control. However, it has been shown that the benzamide preparable according to the disclosure of WO 2012/028579 A1 is not suitable for the production of user-friendly administration forms. User-friendly administration forms are, for example, suspension formulations in which the benzamide is present finely ground in solid form. […] The crystal growth can occur spontaneously or over a longer period and cannot be predicted.

[2] = Stability tests: storage of an oil dispersion; type: physicochemical; conditions: after several weeks of storage, compared to an oil dispersion of the benzamide prepared according to WO 2012/028579 A1

SMILES	crystal growth, clumping and precipitation in suspension formulations [1]	signs of clumping and precipitation on storage [2]
CSc1c(C(F)(F)F)ccc(C(=O)Nc2nnnn2C)c1Cl [2-chloro-3-(methylsulfanyl)-N-(1-methyl-1H-tetrazol-5-yl)-4-(trifluoromethyl)benzamide]	crystal growth in suspension formulations and consequently to clumping and precipitation	
CSc1c(C(F)(F)F)ccc(C(=O)Nc2nnnn2C)c1Cl [crystal modification II, 2-chloro-3-(methylsulfanyl)-N-(1-methyl-1H-tetrazol-5-yl)-4-(trifluoromethyl)benzamide]		no signs of clumping and precipitation
